The values below come from patent US20100041760A1, “MONOARYL AMINOTETRALINES” (priority 2008, published 2010).

In the assay the target is T1, human CRTH2 (Homo sapiens, UniProt Q9Y5Y4).
T1 sequence (Q9Y5Y4 1-395): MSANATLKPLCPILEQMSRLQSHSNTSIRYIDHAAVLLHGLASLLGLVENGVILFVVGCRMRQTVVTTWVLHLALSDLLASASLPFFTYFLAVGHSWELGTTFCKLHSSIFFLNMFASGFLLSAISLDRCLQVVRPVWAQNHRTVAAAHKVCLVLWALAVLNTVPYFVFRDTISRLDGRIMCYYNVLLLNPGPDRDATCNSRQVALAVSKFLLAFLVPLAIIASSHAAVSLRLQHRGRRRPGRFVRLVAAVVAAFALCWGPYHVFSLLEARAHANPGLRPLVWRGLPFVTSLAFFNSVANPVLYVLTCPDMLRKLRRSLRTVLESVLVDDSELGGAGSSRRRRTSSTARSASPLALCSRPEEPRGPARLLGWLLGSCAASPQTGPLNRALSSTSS
Briefly: Calcium Flux Assay Using Fluorometric Imaging Plate Reader (FLIPR). It counts as cell-based. On the set-up: expressed in transfected cells; host or cells: CHO-K1 previously transfected with G-alpha 16. As to conditions: CHO-K1 cells with G-alpha 16 and human CRTH2. The protocol: CHO-K1 cells previously transfected with G-alpha 16 were subsequently transfected with the human CRTH2 receptor and the neomycin resistance gene. Following selection in 800 μg/mL G418 (geneticin), individual clones were assayed for their receptor expression based on staining with an anti human CRTH2 IgG, followed by assaying for their response to 13,14-dihydro-15-keto Prostaglandin D2 (DK-PDG2) (ligand) in the Ca^2+ Flux assay. Positive clones were then cloned by limiting dilution cloning. The transfected cells were cultured in Ham's F-12 medium supplemented with 10% fetal bovine serum, 2 mM glutamine, 100 U/mL penicillin/100 μg/mL streptomycin, 200 μg/mL hygromycin B, and 800 μg/mL G418 (geneticin). Cells were harvested with trypsin-EDTA (trypsin-ethylenediaminetetraacetic acid) and counted using ViaCount® reagent (from Guava Technologies, Inc. which contains two DNA-binding dyes that enable the reagent user to distinguish between viable and non-viable cells). The cell suspension volume was adjusted to 2.5×10^5 cells /mL with complete growth media. Aliquots of 50 μL were dispensed into BD Falcon™ 384 well black/clear microplates (from BD Biosciences, a division of Becton, Dickinson and Company) and the microplates were placed in a 37° C. CO2 incubator overnight. The following day, the microplates were used in the assay.
Loading Buffer containing dye (from the FLIPR® Calcium 3 Assay Kit from Molecular Devices, a division of MDS Analytical Technologies and MDS Inc.) was prepared by dissolving the contents of one bottle into 200 mL Hank's Balanced Salt Solution containing 20 mM HEPES (4-(2-hydroxyethyl)-1-piperazineethanesulfonic acid) and 2.5 mM probenecid. Growth media was removed from the cell plates and 25 μL of Hank's Balanced Salt Solution (HBSS) containing 20 mM HEPES, 0.05% BSA and 2.5 mM probenecid was added to each well followed by 25 μL of diluted dye using a Multidrop dispenser. The plates were then incubated for 1 hour at 37° C.
During the incubation, test compound plates were prepared by adding 90 μL of HBSS/20 mM HEPES/0.005% BSA buffer to the 2 μL of serial diluted compounds. To prepare serial diluted compounds, 20 mM stocks of compounds were dissolved in 100% DMSO. The compound dilution plate was set up as follows: well #1 received 5 μL of compound plus 10 μL of DMSO. Wells 2-10 received 10 μL of DMSO. 5 μL was mixed and transferred from well #1 into well #2. 1:3 serial dilutions were continued out 10 steps. 2 μL of diluted compound was transferred into duplicate wells of a 384 well “assay plate” and then 90 μL of buffer was added.
After incubation, both the cell and “assay plate” plates were brought to the fluorometric imaging plate reader (FLIPR®) and 20 μL of the diluted compounds were transferred to the cell plates by the FLIPR®. Plates were then incubated for 1 hour at room temperature. After the 1 hour incubation, plates were returned to the FLIPR® and 20 μL of 4.5× concentrated ligand was added to the cell plates. During the assay, fluorescence readings were taken simultaneously from all 384 wells of the cell plate every 1.5 seconds. Five readings were taken to establish a stable baseline, then 20 μL of sample was rapidly (30 μL/sec) and simultaneously added to each well of the cell plate. The fluorescence was continuously monitored before, during and after sample addition for a total elapsed time of 100 seconds. Responses (increase in peak fluorescence) in each well following agonist addition were determined. The initial fluorescence reading from each well, prior to ligand stimulation, was used as a zero baseline value for the data from that well. The responses were expressed as % inhibition of the buffer control. […]
For orientation: A change in cytosolic calcium serves as a functional read-out for many receptors and channels.

Where [1] appears, read: inhibition of ligand (DK-PGD2) response, read-out: IC50 value in FLIPR calcium flux assay.

Like-named read-outs stand apart in the source and are kept apart here.

What is called IC50 is the concentration at which inhibition is half-maximal. `CN([C@@H]1CCCc2c(OCC(=O)O)cccc21)S(=O)(=O)c1cc(F)cc(C(F)(F)F)c1` [Example 1-1, {(R)-5-[(3-fluoro-5-trifluoromethyl-benzenesulfonyl)-methyl-amino]-5,6,7,8-tetrahydro-naphthalen-1-yloxy}-acetic acid]: under setting [1], the concentration for half-maximal inhibition (IC50) was 1.77 µM. Consider `CCN(CC)c1cc(C(F)(F)F)cc(S(=O)(=O)N(C)[C@@H]2CCCc3c(OCC(=O)O)cccc32)c1` [Example 4-2, {(R)-5-[(3-diethylamino-5-trifluoromethyl-benzenesulfonyl)-methyl-amino]-5,6,7,8-tetrahydro-naphthalen-1-yloxy}-acetic acid], for which, under setting [1], the IC50 came out at 2.01 µM. `O=C(O)COc1cccc2c1CCC[C@H]2NS(=O)(=O)c1cc(Cl)cc(Cl)c1` [Example 10-1, [(R)-5-(3,5-dichloro-benzenesulfonylamino)-5,6,7,8-tetrahydro-naphthalen-1-yloxy]-acetic acid]: where the note is “unit inferred, read-out: IC50 value in FLIPR calcium flux assay (unit inferred)”, the IC50 was about 3 µM. For `O=C(O)COc1cccc2c1CCC[C@H]2NS(=O)(=O)c1cc(F)cc(C(F)(F)F)c1` [Example 10-12, [(R)-5-(3-fluoro-5-trifluoromethyl-benzenesulfonylamino)-5,6,7,8-tetrahydro-naphthalen-1-yloxy]-acetic acid], the concentration for half-maximal inhibition (IC50) under setting [1] is 0.313 µM. Consider `O=C(O)COc1cccc2c1CCC[C@H]2NS(=O)(=O)c1cc(F)cc(F)c1` [Example 10-5, [(R)-5-(3,5-difluoro-benzenesulfonylamino)-5,6,7,8-tetrahydro-naphthalen-1-yloxy]-acetic acid], for which the IC50 under setting [1] was determined as 0.094 µM. The same measure, in the same setting: for `CN([C@@H]1CCCc2c(OCC(=O)O)cccc21)S(=O)(=O)c1cc(OC2CCCC2)cc(C(F)(F)F)c1` [Example 9-3, {(R)-5-[(3-cyclopentyloxy-5-trifluoromethyl-benzenesulfonyl)-methyl-amino]-5,6,7,8-tetrahydro-naphthalen-1-yloxy}-acetic acid] the value was 0.462 µM.
